{"source": "ChEMBL document CHEMBL2203172", "about": "“Synthesis of chiral hydroxylated enones as potential anti-tumor agents” (Bioorg Med Chem Lett, 2012)", "key": {"HL-60": {"tested_on": "HL-60", "test": "Cytotoxicity against human HL60 cells", "type": "functional, cell-based"}, "WRL68": {"tested_on": "WRL68", "test": "Cytotoxicity against human WRL68 cells", "type": "cell-based"}, "HepG2": {"tested_on": "HepG2", "test": "Cytotoxicity against human HepG2 cells", "type": "functional, cell-based"}}, "data": [{"compound": "OCC1=C[C@H](O)[C@H](O)[C@@H](O)[C@@H]1O", "note": "[STREPTOL]", "values": [{"measurement": "IC50", "setting": "HL-60", "value": "> 50", "unit": "µM"}, {"measurement": "IC50", "setting": "WRL68", "value": "> 200", "unit": "µM"}, {"measurement": "IC50", "setting": "HepG2", "value": "> 50", "unit": "µM"}]}, {"compound": "CC(=O)OCC1=C[C@H](OCc2ccc3ccccc3c2)[C@H](O)[C@@H](O)C1=O", "values": [{"measurement": "IC50", "setting": "HL-60", "value": "> 50", "unit": "µM"}, {"measurement": "IC50", "setting": "WRL68", "value": "> 200", "unit": "µM"}, {"measurement": "IC50", "setting": "HepG2", "value": "> 50", "unit": "µM"}]}, {"compound": "CCCCCO[C@H]1C=C(COC(C)=O)C(=O)[C@H](O)[C@H]1O", "values": [{"measurement": "IC50", "setting": "HL-60", "value": 3.1, "unit": "µM"}, {"measurement": "IC50", "setting": "WRL68", "value": 169, "unit": "µM"}, {"measurement": "IC50", "setting": "HepG2", "value": 16.1, "unit": "µM"}]}, {"compound": "CC(=O)OCC1=C[C@H](OCc2ccc(-c3ccccc3)cc2)[C@H](O)[C@@H](O)C1=O", "values": [{"measurement": "IC50", "setting": "WRL68", "value": 71.3, "unit": "µM"}]}, {"compound": "CCCCCCCO[C@H]1C=C(COC(C)=O)C(=O)[C@H](O)[C@H]1O", "values": [{"measurement": "IC50", "setting": "HL-60", "value": 39.8, "unit": "µM"}, {"measurement": "IC50", "setting": "WRL68", "value": 152, "unit": "µM"}, {"measurement": "IC50", "setting": "HepG2", "value": "> 50", "unit": "µM"}]}, {"compound": "CCCCCO[C@@H]1C=C(COC(C)=O)C(=O)[C@H](O)[C@H]1O", "values": [{"measurement": "IC50", "setting": "HL-60", "value": 2.6, "unit": "µM"}, {"measurement": "IC50", "setting": "WRL68", "value": 48.3, "unit": "µM"}, {"measurement": "IC50", "setting": "HepG2", "value": 10.1, "unit": "µM"}]}, {"compound": "CCCO[C@H]1C=C(COC(C)=O)C(=O)[C@H](O)[C@H]1O", "values": [{"measurement": "IC50", "setting": "HL-60", "value": 10.1, "unit": "µM"}, {"measurement": "IC50", "setting": "WRL68", "value": 191, "unit": "µM"}, {"measurement": "IC50", "setting": "HepG2", "value": 33.6, "unit": "µM"}]}, {"compound": "CO[C@H]1C=C(COC(C)=O)C(=O)[C@H](O)[C@H]1O", "values": [{"measurement": "IC50", "setting": "HL-60", "value": "> 50", "unit": "µM"}, {"measurement": "IC50", "setting": "WRL68", "value": "> 200", "unit": "µM"}, {"measurement": "IC50", "setting": "HepG2", "value": "> 50", "unit": "µM"}]}]}
